Values quoted from earlier work, collected in patent US8158161B2, “Methods and pharmaceutical compositions useful for treating psoriasis” (S.U.L.V.E. Ltd., priority 2005, dated 2012).

Tested on: K562 cells
Conditions: Leoni 1997

| SMILES | rank among isothiocyanates tested as inhibitors of leukemic cell growth |
| --- | --- |
| C=CCN=C=S [2-Propenyl-isothiocyanate] | most potent inhibitors |
| S=C=NCc1ccccc1 [Benzyl-isothiocyanate] | most potent inhibitors |
